# Results: US8952024B2, “Herbicidal pyrimidone derivatives” (E I du Pont de Nemours and Company, priority 2009, dated 2015)
# Key:
# Assay type in all cases: in vivo
# [1] = tested on: bermudagrass (Cynodon dactylon); test: Test B pre-/postemergence plant response; settings: for Plant response rating, Bermudagrass: Postemergence
# In short: (§1)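 Test compounds, formulated in a non-phytotoxic solvent mixture with surfactant, are applied to the soil surface (loam and sand blend) right after seeding, or sprayed over plants at the 1- to 4-leaf stage grown in peat moss/vermiculite medium. After 13 to 15 days under glasshouse conditions, each species is scored visually from 0 (no effect) to 100 (complete control) against controls.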
# [2] = tested on: galium (catchweed bedstraw, Galium aparine); test: Test B pre-/postemergence plant response; settings: Postemergence
# In short: as §1
# [3] = tested on: morningglory (Ipomoea coccinea); test: Test B pre-/postemergence plant response; settings: Postemergence
# In short: as §1
# [4] = tested on: canarygrass (Phalaris minor); test: Test B postemergence plant response; settings: Postemergence
# In short: (§2)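 Visual ratings from 0 (no effect) to 100 (complete control), made against controls 13–15 days after treatment, kept in a greenhouse. Compounds were applied postemergence to potted plants at the 1- to 4-leaf stage (2–18 cm).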
# [5] = tested on: chickweed (Stellaria media); test: Test B postemergence plant response; settings: Postemergence
# In short: as §2
# [6] = tested on: windgrass (Apera spica-venti); test: Test B postemergence plant response; settings: Postemergence
# In short: as §2
# [7] = tested on: winter barley (Hordeum vulgare); test: Test B postemergence plant response; settings: for Plant response rating, Barley: Postemergence
# In short: as §2
# [8] = tested on: barnyardgrass (Echinochloa crus-galli); test: Test B flooded paddy test; settings: for Plant response rating, Barnyardgrass: Flood (flooded paddy test), 13 to 15 days
# In short: (§3)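 Seedlings reaching 2 leaves are flooded 3 cm deep; test material is delivered to that water, which stays at the same depth. Plants remain in a greenhouse 13–15 days and are then scored by eye versus controls from 0 to 100.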
# [9] = tested on: ducksalad (Heteranthera limosa); test: Test B flooded paddy test; settings: for Plant response rating, Ducksalad: Flood (flooded paddy test), 13 to 15 days
# In short: as §3
# rice (Oryza sativa) = test: Test B flooded paddy test; settings: for Plant response rating, Rice: Flood (flooded paddy test), 13 to 15 days
# In short: as §3
# [10] = tested on: umbrella sedge (Cyperus difformis); test: Test B flooded paddy test; settings: for Plant response rating, Sedge, Umbrella: Flood (flooded paddy test), 13 to 15 days
# In short: as §3
# [11] = 62 g ai/ha, postemergence, 0 is no effect, 100 is complete control, 13 to 15 days
# [12] = 31 g ai/ha, 0 to 100 scale (0 no effect, 100 complete control)
# [13] = 125 g ai/ha, scale 0 to 100 (0 no effect, 100 complete control)
# [14] = 250 g ai/ha, scale 0 to 100 (0 no effect, 100 complete control), 13 to 15 days
# [15] = 250 g ai/ha, flooded paddy test, visual rating on 0 to 100 scale (0 no effect, 100 complete control) after 13 to 15 days
# [16] = 62 g ai/ha, scale of 0 to 100 where 0 is no effect and 100 is complete control
# [17] = 125 g ai/ha, scale 0 to 100, 0 is no effect, 100 is complete control
# [18] = Flood, 31 g ai/ha, scale 0 to 100 (0 no effect, 100 complete control)
smiles,measurement,setting,value
O=C1CCCC(O)=C1C(=O)c1cnc(-c2ccsc2)n(C2CCOCC2)c1=O [Compound 186],Bermudagrass plant response rating (0 to 100 scale),[1]; [11],80
same,"Plant response rating, Bermudagrass",[1]; [12],80
same,"Plant response rating, Bermudagrass",[1]; [13],95
same,"Plant response rating, Bermudagrass",[1]; [14],98
same,"Plant response rating, Galium",[2]; [12],40
same,"Plant response rating, Galium",[2]; [13],70
same,"Plant response rating, Galium",[2]; [14],70
same,"Plant response rating, Morningglory",[3]; [12],95
same,"Plant response rating, Morningglory",[3]; [13],100
same,"Plant response rating, Morningglory",[3]; [14],100
same,"Plant response rating, Canarygrass",[4]; [12],5
same,"Plant response rating, Canarygrass",[4]; [13],40
same,"Plant response rating, Canarygrass",[4]; [14],40
same,"Plant response rating, Chickweed",[5]; [12],95
same,"Plant response rating, Chickweed",[5]; [13],100
same,"Plant response rating, Chickweed",[5]; [14],100
same,"Plant response rating, Windgrass",[6]; [12],10
same,"Plant response rating, Windgrass",[6]; [13],50
same,"Plant response rating, Windgrass",[6]; [14],65
same,Barley plant response rating (0 to 100 scale),[7]; [11],5
same,"Plant response rating, Barley",[7]; [12],0
same,"Plant response rating, Barley",[7]; [13],5
same,"Plant response rating, Barley",[7]; [14],5
same,"Plant response rating, Flood, Barnyardgrass",[8]; [15],30
same,"Plant response rating, Barnyardgrass",[8]; [16],20
same,"Plant response rating, Barnyardgrass",[8]; [17],30
same,Barnyardgrass plant response rating,[8]; [18],0
same,"Plant response rating, Flood, Ducksalad",[9]; [15],100
same,"Plant response rating, Ducksalad",[9]; [16],90
same,"Plant response rating, Ducksalad",[9]; [17],90
same,Ducksalad plant response rating,[9]; [18],90
same,"Plant response rating, Flood, Rice",rice (Oryza sativa); [15],65
same,"Plant response rating, Rice",rice (Oryza sativa); [16],20
same,"Plant response rating, Rice",rice (Oryza sativa); [17],45
same,Rice plant response rating,rice (Oryza sativa); [18],10
same,"Plant response rating, Flood, Sedge, Umbrella",[10]; [15],90
same,"Plant response rating, Sedge, Umbrella",[10]; [16],80
same,"Plant response rating, Sedge, Umbrella",[10]; [17],80
same,"Sedge, Umbrella plant response rating",[10]; [18],70
